Target: T1, rat BK1 receptor (Rattus norvegicus, UniProt P97583)
T1 construct: expressed in transfected cells
T1 sequence (P97583 1-337): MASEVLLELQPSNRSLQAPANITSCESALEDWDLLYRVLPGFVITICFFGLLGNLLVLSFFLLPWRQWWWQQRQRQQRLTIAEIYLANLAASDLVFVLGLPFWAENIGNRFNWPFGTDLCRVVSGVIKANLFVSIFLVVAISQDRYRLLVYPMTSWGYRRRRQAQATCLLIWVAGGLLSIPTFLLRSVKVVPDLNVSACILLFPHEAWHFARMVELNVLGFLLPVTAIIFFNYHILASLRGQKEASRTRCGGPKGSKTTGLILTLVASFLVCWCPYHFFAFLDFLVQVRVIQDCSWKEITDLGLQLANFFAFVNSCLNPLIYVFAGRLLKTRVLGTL
Assay: Bradykinin BK1-receptor binding (radioligand displacement, membranes of CHO cells)
Conditions: membranes of CHO cells stably expressing the rat BK1 receptor; 1 to 5 nM [3H]-kallidin (DesArg10, Leu9); 120 minutes at room temperature
Protocol: Description of the Method of Bradykinin BK1-Receptor Binding
CHO cells stably expressing the rat BK1 receptor are cultivated in Dulbecco's modified medium. The medium from confluent cultures is removed and the cells are washed with PBS buffer, scraped off and isolated by centrifugation. The cells are then homogenized in suspension and the homogenate is centrifuged and resuspended. The protein content is determined and the membrane preparation obtained in this manner is then frozen at −80° C.
After thawing, 200 μl of the homogenate (50 to 100 μg of proteins/assay) are incubated at room temperature with 1 to 5 nM of kallidin (DesArg10, Leu9), [3,4-prolyl-3,43H(N)] and increasing concentrations of the test substance in a total volume of 250 μl for 120 minutes. The incubation is terminated by rapid filtration through GF/B glass fibre filters which had been pretreated with polyethyleneimine (0.3%). The protein-bound radio-activity is measured in a TopCount NXT (Perkin Elmer/Packard). Non-specific binding is defined as radioactivity bound in the presence of 1.0 μM Lys-Des-Arg9-bradykinin. The concentration/binding curve is analysed using a computer-assisted nonlinear curve fitting. The Ki which corresponds to the test substance is determined using the data obtained in this manner.
It is pointed out that the compounds were selected for their different structural elements and not in order to emphasise specific compounds: […]

Ki	Compound
24.7 nM	COc1cc(C)c(S(=O)(=O)N(C)CCOCC(=O)N(C)[C@@H]2CCN(C3CCN(C4CCOCC4)CC3)C2)c(C)c1 [Example 3]
181 nM	COc1cc(C)c(S(=O)(=O)N(C)CCOCC(=O)N(C)C[C@@H]2CCN(C(=O)CCN3CCCC3)C2)c(C)c1 [Example 6]
23.5 nM	COc1cc(C)c(S(=O)(=O)N(C)CCOCC(=O)N(C)[C@@H]2CCN(C3CCN(C4CC4)CC3)C2)c(C)c1 [Example 8]
